Consider three compounds from patent US20150175599A1, “FAAH Inhibitors” (Ironwood Pharmaceuticals, Inc., priority 2010, published 2015).

T1 sequence (P21554 whole entry): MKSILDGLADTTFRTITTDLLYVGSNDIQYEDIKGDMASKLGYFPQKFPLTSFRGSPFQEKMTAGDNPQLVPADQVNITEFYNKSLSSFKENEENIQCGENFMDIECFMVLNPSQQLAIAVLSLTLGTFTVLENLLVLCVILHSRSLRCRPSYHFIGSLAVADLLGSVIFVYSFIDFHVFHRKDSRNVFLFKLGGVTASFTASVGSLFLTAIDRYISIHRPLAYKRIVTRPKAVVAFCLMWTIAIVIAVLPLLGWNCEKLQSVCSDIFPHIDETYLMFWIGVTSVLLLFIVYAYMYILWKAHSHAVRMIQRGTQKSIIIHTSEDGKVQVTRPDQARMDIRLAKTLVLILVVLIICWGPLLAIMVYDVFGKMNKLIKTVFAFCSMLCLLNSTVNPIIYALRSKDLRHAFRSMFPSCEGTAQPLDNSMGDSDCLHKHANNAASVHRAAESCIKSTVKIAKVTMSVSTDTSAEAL

This test addresses T1, human cannabinoid receptor, CB1 (Homo sapiens, UniProt P21554).
T1 construct: (cDNA clone) CNR01L000; membranes prepared from it
The test is described as follows: Human CB1 cannabinoid receptor radioligand binding assay ([3H]-CP 55,940). The following applies: Table 4. From the text:
cDNA expression clones for human CB1 (hCB 1, Genbank Accession No. AY225225) expressed in vector pcDNA3.1+ were purchased from UMR cDNA Resource Center, Rolla, Mo. (Clone ID CNR01L000 for hCB 1).
Stable, HEK-293-derived cell lines that recombinantly express hCB 1 were established. In brief, the clone hCB 1 (CNR1L) was transfected into human embryonic kidney cells (HEK-293) using Lipofectamine 2000 (Gibco, Cat#11668-019) according to the manufacturer's protocol. Transfected clones were isolated by single colony purification and clones were screened for receptor expression using a whole cell, ^3H-CP 55,940 radioligand binding assay. HEK-293 stable cells were maintained in Dulbecco's modified Eagles medium (DMEM) containing 10% fetal bovine serum, 2 mM L-glutamine and 0.5 mg/mL G-418.
Membranes were isolated from transfected cells as follows. Monolayers of cultured cells were washed twice with phosphate-buffered saline (PBS). […] Protein concentration of membrane suspensions were measured by Bradford Protein Assay using bovine serum albumin as the standard (BioRad catalog #500-0006). […]
Radioligand binding assays were performed by incubating membranes (2-10 ug protein) prepared from HEK-293 cells expressing recombinant human cannabinoid receptor, CB1, at room temperature with 0.5 nM cannabinoid receptor agonist, [^3H]-CP 55,940 (Perkin Elmer, catalog #NET1051) in 0.2 mL of binding buffer (50 mM Tris-HCl, pH 7.5, 5 mM MgCl2, 2.5 mM EDTA) and 0.1% fatty acid free bovine serum albumin (Sigma Cat. #A0821) for 90 minutes. […] The radioactivity bound to the filters was counted with 0.05 mL of liquid scintillant (UltraGold MV, PerkinElmer catalog #6013159) in a scintillation counter (Perkin Elmer Microbeta instrument). Nonspecific binding was determined in the presence of unlabeled 1 uM CP 55,940 (Sigma Aldrich, catalog #C1112). Binding data were analyzed using GraphPad Prism (GraphPad Software, Inc. San Diego, Calif.).
For the compound `COc1cc(NC(=O)C(=O)c2c(C)n(Cc3ncc(F)cc3F)c3cc(F)c(OC)cc23)ccn1` [Compound 101, 2-(1-((3,5-difluoropyridin-2-yl)methyl)-6-fluoro-5-methoxy-2-methyl-1H-indol-3-yl)-N-(2-methoxypyridin-4-yl)-2-oxoacetamide], the IC50 (usually the concentration that gives 50% inhibition) was in the range of 1 to 10 µM.
Then `COc1cc(NC(=O)C(=O)c2c(C)n(Cc3ncc(Cl)cc3F)c3cc(F)c(OC)cc23)ccn1` [Compound 99, 2-(1-((5-chloro-3-fluoropyridin-2-yl)methyl)-6-fluoro-5-methoxy-2-methyl-1H-indol-3-yl)-N-(2-methoxypyridin-4-yl)-2-oxoacetamide], with 1 to 10 µM; and `COc1ccc2c(c1)c(C(=O)C(=O)Nc1ccnc(OC)c1)c(C)n2Cc1ncc(Cl)cc1OC` [Compound 100, 2-(1-((5-chloro-3-methoxypyridin-2-yl)methyl)-5-methoxy-2-methyl-1H-indol-3-yl)-N-(2-methoxypyridin-4-yl)-2-oxoacetamide], with above 10 µM.
